We go through 38 compounds from patent publication US20090111801A1, “SUBSTITUTED PYRAZINONE DERIVATIVES FOR USE AS A MEDICINE” (Janssen Pharmaceutica N.V., priority 2006, published 2009).

Data set [1] has as its target T1, hα2C receptor (Homo sapiens, UniProt P18825).
T1 construct: expressed in transfected cells; host or cells: CHO cells, stably transfected; membrane preparation
T1 sequence (P18825 1-462): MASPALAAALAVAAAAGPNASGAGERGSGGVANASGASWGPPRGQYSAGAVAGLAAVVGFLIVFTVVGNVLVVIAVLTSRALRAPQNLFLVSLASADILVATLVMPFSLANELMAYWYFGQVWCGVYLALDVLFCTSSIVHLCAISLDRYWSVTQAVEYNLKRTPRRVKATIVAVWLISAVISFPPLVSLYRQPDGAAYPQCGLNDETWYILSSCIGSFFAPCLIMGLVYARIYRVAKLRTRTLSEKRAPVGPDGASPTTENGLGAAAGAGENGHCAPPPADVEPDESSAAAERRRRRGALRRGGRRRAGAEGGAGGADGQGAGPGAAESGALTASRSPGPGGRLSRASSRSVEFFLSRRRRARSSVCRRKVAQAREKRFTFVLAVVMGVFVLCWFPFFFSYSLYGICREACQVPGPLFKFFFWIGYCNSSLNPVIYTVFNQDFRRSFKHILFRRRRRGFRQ
The data set is described as follows: Radioligand binding experiment for α2C-adrenoceptor ([3H]raulwolscine, CHO cell membranes). The note with it: [3H]raulwolscine binding, read-out: h-α2C pIC50 (converted).

Data set [2] addresses T2, hα2A receptor (Homo sapiens, UniProt P08913).
T2 construct: expressed in transfected cells; host or cells: CHO cells, stably transfected; membrane preparation
T2 sequence (P08913 1-465): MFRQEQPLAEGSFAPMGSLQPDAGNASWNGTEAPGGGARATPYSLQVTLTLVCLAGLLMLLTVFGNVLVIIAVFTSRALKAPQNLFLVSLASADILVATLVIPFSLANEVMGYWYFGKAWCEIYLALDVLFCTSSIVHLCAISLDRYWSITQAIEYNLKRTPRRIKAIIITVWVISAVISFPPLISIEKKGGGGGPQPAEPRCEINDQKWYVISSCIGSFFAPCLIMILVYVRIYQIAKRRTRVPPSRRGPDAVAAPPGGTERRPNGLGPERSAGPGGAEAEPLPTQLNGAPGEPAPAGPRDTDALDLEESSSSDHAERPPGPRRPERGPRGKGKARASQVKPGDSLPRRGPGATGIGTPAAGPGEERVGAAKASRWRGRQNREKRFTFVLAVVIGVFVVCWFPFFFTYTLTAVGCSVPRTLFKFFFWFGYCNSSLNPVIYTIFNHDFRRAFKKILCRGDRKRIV
The data set is described as follows: Radioligand binding experiment for α2A-adrenoceptor ([3H]raulwolscine, CHO cell membranes). The note with it: [3H]raulwolscine binding, read-out: h-α2A pIC50 (converted).

Data set [3] addresses T3, 5HT-Transporter (Homo sapiens, UniProt P31645).
T3 construct: Human platelet membranes (Oceanix Biosciences Corporation, Hanover, Md., USA) were thawed; tissue Oceanix Biosciences Corporation, Hanover, Md., USA; host or cells: human platelet membranes
The data set is described as follows: Binding experiment for the 5HT-transporter ([3H]paroxetine, human platelet membranes). The note with it: [3H]paroxetine 0.5 nM, read-out: h-5HTT pIC50 (converted). The method, boiled down: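 Competition binding of [3H]paroxetine to human platelet membranes in Tris-HCl 50 mM, 120 mM NaCl, 5 mM KCl, with filtration and scintillation counting.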

Molecules are shown by their SMILES. Structures can show the parent of a compound that is named as a salt.

T3 sequence (P31645 whole entry): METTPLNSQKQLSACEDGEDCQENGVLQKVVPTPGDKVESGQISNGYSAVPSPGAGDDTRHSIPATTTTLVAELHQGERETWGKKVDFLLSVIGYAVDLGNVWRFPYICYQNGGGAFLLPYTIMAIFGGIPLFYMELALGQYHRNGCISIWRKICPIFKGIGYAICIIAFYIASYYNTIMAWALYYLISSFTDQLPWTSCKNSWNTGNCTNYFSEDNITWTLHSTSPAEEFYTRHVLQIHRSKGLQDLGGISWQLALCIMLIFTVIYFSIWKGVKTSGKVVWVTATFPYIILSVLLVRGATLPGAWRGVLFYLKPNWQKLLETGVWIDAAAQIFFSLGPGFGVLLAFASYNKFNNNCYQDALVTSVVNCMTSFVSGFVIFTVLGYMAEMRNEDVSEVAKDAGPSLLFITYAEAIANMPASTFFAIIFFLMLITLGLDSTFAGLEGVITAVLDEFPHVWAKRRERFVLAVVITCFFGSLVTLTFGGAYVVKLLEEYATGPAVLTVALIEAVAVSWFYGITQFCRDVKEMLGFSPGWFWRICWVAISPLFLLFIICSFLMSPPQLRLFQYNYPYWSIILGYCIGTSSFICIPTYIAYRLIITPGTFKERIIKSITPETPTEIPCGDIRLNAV

On to `C/C(=C\c1ccccc1)CN1CCC(Nc2nccn(Cc3ccc(CN)cc3)c2=O)CC1` (as salt: HCl) [1-7], for which the melting point stood at 231 °C.

With `C/C(=C\c1ccccc1)CN1CCC(Nc2nccn(CCCNCc3ccccc3)c2=O)CC1` (as salt: HCl) [1-47], the melting point was 270 °C.

For `C/C(=C\c1ccccc1)CN1CCC(Nc2nccn(CCN3CCCCC3)c2=O)CC1` (as salt: HCl) [2-4], the melting point came to 294 °C.

Regarding `C/C(=C\c1ccccc1)CN1CCC(Nc2nccn(CC#CCN3C(=O)c4ccccc4C3=O)c2=O)CC1` (as salt: trifluoroacetate) [2-54], the melting point is 67 °C.

Compound `C/C(=C\c1ccccc1)CN1CCC(Nc2nccn(Cc3ccc(CN)cc3)c2=O)CC1` [1-6] returned a melting point of 286 °C. Moreover, the IC50 in data set [1] is 2.51 nM. The IC50 in data set [2] is 12.6 nM. In data set [3], the IC50 is 398 nM.

`C/C(=C\c1ccccc1)CN1CCC(Nc2nccn(CCCN(C)C)c2=O)CC1` [1-14] registered a melting point of 254 °C. For the same compound, the IC50 in data set [2] was 63.1 nM. In addition, in data set [3], the IC50 is 6310 nM.

Take `C/C(=C\c1ccccc1)CN1CCC(Nc2nccn(CC(=O)N(C)C)c2=O)CC1` [1-16]: the melting point was found to be 128 °C. Besides, the IC50 in data set [1] is 15.8 nM. For the same compound, the IC50 in data set [2] was 100 nM. In addition, the IC50 in data set [3] is above 10000 nM.

As for `CC(=O)CNCCCn1ccnc(NC2CCN(C/C(C)=C/c3ccccc3)CC2)c1=O` [1-37], the melting point was found to be 160 °C. Also, the IC50 in data set [1] is 3.98 nM. Also, in data set [2], the IC50 is 79.4 nM. Besides, the IC50 in data set [3] was 1260 nM.

As to `C/C(=C\c1ccccc1)CN1CCC(Nc2nccn(-c3ccc(CN(C)CCN(C)C)cc3)c2=O)CC1` [1-110], the melting point came out at 115 °C. The IC50 in data set [1] is 2 nM. Also, in data set [2], the IC50 is 20 nM. Moreover, the IC50 in data set [3] was 501 nM.

As for `C/C(=C\c1ccccc1)CN1CCC(Nc2nccn(Cc3ccc(CNC(=O)c4ccco4)cc3)c2=O)CC1` [1-152], the melting point was 103 °C. Also, the IC50 in data set [1] was 31.6 nM. In addition, the IC50 in data set [2] is 126 nM. The IC50 in data set [3] is 501 nM.

`C/C(=C\c1ccccc1)CN1CCC(Nc2nccn(Cc3ccc(CNS(=O)(=O)c4ccccc4)cc3)c2=O)CC1` [1-159]: the melting point turned out to be 128 °C. The IC50 in data set [1] was 25.1 nM. Besides, the IC50 in data set [2] was 63.1 nM. The IC50 in data set [3] is 794 nM.

`CC(=O)c1ccc(S(=O)(=O)NCc2ccc(Cn3ccnc(NC4CCN(C/C(C)=C/c5ccccc5)CC4)c3=O)cc2)cc1` [1-165] returned a melting point of 110 °C. In data set [1], the IC50 is 25.1 nM. Also, in data set [2], the IC50 is 158 nM. Further, in data set [3], the IC50 was 1000 nM.

Regarding `C/C(=C\c1ccccc1)CN1CCC(Nc2nccn(CC(=O)N3CCCCC3)c2=O)CC1` [2-5], the melting point is 170 °C. In data set [1], the IC50 is 6.31 nM. The IC50 in data set [2] is 126 nM. In addition, the IC50 in data set [3] was 5010 nM.

The compound `C/C(=C\c1ccccc1)CN1CCC(Nc2nccn(Cc3ccc(OC(F)(F)F)cc3)c2=O)CC1` [3-15] gave a melting point of 99 °C. Besides, the IC50 in data set [1] was 126 nM. Besides, the IC50 in data set [2] was 251 nM. The IC50 in data set [3] is 1260 nM.

In turn, `C/C(=C\c1ccccc1)CN1CCC(Nc2nccn(Cc3ccccc3CS(=O)(=O)c3ccccc3)c2=O)CC1` [4-3] registered a melting point of 112 °C. In addition, in data set [1], the IC50 is 15.8 nM. The IC50 in data set [2] was 158 nM. For the same compound, the IC50 in data set [3] is 398 nM.

In the case of `CN(C)C(=O)Cn1ccnc(NC2CCN(C/C=C/c3ccccc3)CC2)c1=O` [16-3], the IC50 in data set [1] is 316 nM; in data set [2], 2510 nM; in data set [3], above 10000 nM.

Turning to `CC(C)(C)OC(=O)NCCCn1ccnc(NC2CCN(C/C=C/c3ccccc3)CC2)c1=O` [16-4], the figures for the IC50 in data set [1], in data set [2] and in data set [3] were 39.8 nM, 398 nM and 1260 nM, respectively.

Take `CC(C)(C)OC(=O)NCc1ccc(Cn2ccnc(NC3CCN(C/C=C/c4ccccc4)CC3)c2=O)cc1` [16-5]: the IC50 in data set [1] is 398 nM; in data set [2], 794 nM; in data set [3], 1260 nM.

For the compound `O=c1c(NC2CCN(C/C=C/c3ccccc3)CC2)nccn1CCN1CCCCC1` [16-6], the IC50 is 63.1 nM in data set [1], 794 nM in data set [2] and above 10000 nM in data set [3].

As for `O=c1c(NC2CCN(C/C=C/c3ccccc3)CC2)nccn1CCN1CCOCC1` [16-7], the values for the IC50 in data set [1], in data set [2] and in data set [3] were 398 nM, 3980 nM and above 10000 nM, respectively.

For `O=C1c2ccccc2C(=O)N1CCCn1ccnc(NC2CCN(C/C=C/c3ccccc3)CC2)c1=O` [16-8], the results for the IC50 in data set [1], in data set [2] and in data set [3] were 12.6 nM, 501 nM and 200 nM, respectively.

In the case of `COCCn1ccnc(NC2CCN(C/C=C/c3ccccc3)CC2)c1=O` [16-9], the IC50 is 631 nM in data set [1], 3160 nM in data set [2] and above 10000 nM in data set [3].

Regarding `COC(=O)Cn1ccnc(NC2CCN(C/C=C/c3ccccc3)CC2)c1=O` [16-10], the IC50 is 200 nM in data set [1], 1000 nM in data set [2] and above 10000 nM in data set [3].

Take `CCOC(=O)CCCCn1ccnc(NC2CCN(C/C=C/c3ccccc3)CC2)c1=O` [16-11]: the IC50 in data set [1] was 158 nM; in data set [2], 794 nM; in data set [3] it was 631 nM.

As to `CSCCn1ccnc(NC2CCN(C/C=C/c3ccccc3)CC2)c1=O` [16-12], the IC50 in data set [1] was 316 nM; in data set [2], 794 nM; in data set [3], 2510 nM.

Turning to `O=c1c(NC2CCN(C/C=C/c3ccccc3)CC2)nccn1CCc1ccccc1` [16-14], the IC50 in data set [1] was 200 nM; in data set [2] it was 794 nM; in data set [3], 794 nM.

For the compound `O=c1c(NC2CCN(C/C=C/c3ccccc3)CC2)nccn1Cc1ccccc1Br` [16-15], the IC50 was 158 nM in data set [1], 631 nM in data set [2] and 794 nM in data set [3].

On to `O=c1c(NC2CCN(C/C=C/c3ccccc3)CC2)nccn1Cc1cccc(Br)c1` [16-16], for which the IC50 in data set [1] is 200 nM; in data set [2], 501 nM; in data set [3] it was 1000 nM.

As to `O=c1c(NC2CCN(C/C=C/c3ccccc3)CC2)nccn1Cc1ccc(Br)cc1` [16-17], the IC50 was 316 nM in data set [1], 501 nM in data set [2] and 794 nM in data set [3].

For `O=c1c(NC2CCN(C/C=C/c3ccccc3)CC2)nccn1Cc1ccc2ccccc2c1` [16-18], the IC50 in data set [1] was 251 nM; in data set [2] it was 251 nM; in data set [3], 398 nM.

`O=c1c(NC2CCN(C/C=C/c3ccccc3)CC2)nccn1CC1CCCCO1` (centres unmarked) [16-19]: the IC50 is 316 nM in data set [1], 1580 nM in data set [2] and 5010 nM in data set [3].

Regarding `O=c1c(NC2CCN(C/C=C/c3ccccc3)CC2)nccn1Cc1ccncc1` [16-20], the IC50 in data set [1] was 251 nM; in data set [2], 2000 nM; in data set [3], above 10000 nM.

Turning to `O=c1c(NC2CCN(C/C=C/c3ccccc3)CC2)nccn1Cc1ccc2ccccc2n1` [16-21], the IC50 in data set [1] was 126 nM; in data set [2], 501 nM; in data set [3] it was 1000 nM.

Consider `O=c1c(NC2CCN(C/C=C/c3ccccc3)CC2)nccn1CC1CCCCC1` [16-23], for which the IC50 in data set [1] was 316 nM; in data set [2], 631 nM; in data set [3], 1260 nM.

As for `CC(=O)Cn1ccnc(NC2CCN(C/C=C/c3ccccc3)CC2)c1=O` [16-24], the IC50 in data set [1] was 316 nM; in data set [2], 1000 nM; in data set [3], above 10000 nM.

As for `CC(C)(C)C(=O)Cn1ccnc(NC2CCN(C/C=C/c3ccccc3)CC2)c1=O` [16-25], the IC50 in data set [1] is 158 nM; in data set [2], 1000 nM; in data set [3] it was above 10000 nM.

Take `C/C(=C\c1ccccc1)CN1CCC(Nc2nc(Cl)c(-c3cccc(Br)c3)[nH]c2=O)CC1` [17-1]: the values for the IC50 in data set [1], in data set [2] and in data set [3] were 200 nM, 1000 nM and 316 nM, respectively.

As to `COc1ccc(Cn2c(-c3cccc(Br)c3)c(Cl)nc(NC3CCN(C/C(C)=C/c4ccccc4)CC3)c2=O)cc1` [17-2], the IC50 in data set [1] was 501 nM; in data set [2], 794 nM; in data set [3], 1580 nM.
